Test systems include HCT-15 colon; SF-295 CNS; SNB-75 CNS; HOP-92 NSCLC; SK-MEL-5 melanoma; MCF7 breast; T-47D breast; 786-0 renal; CAKI-1 renal; A498 renal.
What all share (assay): growth of human tumour cells (NCI), 48 h

Molecules are shown by their SMILES. Several values for one entry are separate records, joined by “and”; a condition that tells them apart may be missing. Identical values can stand only once.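 Compound exposure: 48 hours, 5 concentrations, 96-well plates. GI50 = concentration required for 50% inhibition of growth. TGI: concentration producing complete growth inhibition.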

Take `CC1=C([Se]CC(OC(=O)[C@@H](CO)NC(=O)OC(C)(C)C)C(=O)NC(C)(C)C)C(=O)c2ccccc2C1=O` (some centres not stated): the GI50 was 1.99 µM with HCT-15 colon; 0.316 µM with SF-295 CNS; 1.3 µM with SNB-75 CNS; 1.88 µM in the test with HOP-92 NSCLC; 1.59 µM in the test with SK-MEL-5 melanoma; 1.75 µM in the test on MCF7 breast. Moreover, the GI50 was 0.332 µM with T-47D breast, 1.95 µM in the test on 786-0 renal, 1.76 µM in the test on CAKI-1 renal and 3.64 µM with A498 renal. Also, the TGI was 3.97 µM in the test on HCT-15 colon; 1.06 µM in the test on SF-295 CNS; 2.6 µM in the test on SNB-75 CNS; 3.43 µM in the test on HOP-92 NSCLC; 2.97 µM with SK-MEL-5 melanoma; 3.97 µM in the test on MCF7 breast. The TGI with T-47D breast worked out at 1.06 µM; in the test with 786-0 renal it was 3.39 µM; in the test with CAKI-1 renal, 3.39 µM; in the test with A498 renal it was 15.2 µM.
Take `C[C@H]1CC[C@@H]2[C@@H](C)[C@H]3[C@H](C[C@H]4[C@@H]5CC=C6C[C@@H](O)CC[C@]6(C)[C@H]5C[C@H](O)[C@]34C)N2C1`: the TGI with HCT-15 colon, in the test with SF-295 CNS, with SNB-75 CNS, in the test with HOP-92 NSCLC, in the test on SK-MEL-5 melanoma and in the test with MCF7 breast was > 100 µM throughout. Also, the TGI in the test on T-47D breast, in the test on 786-0 renal, in the test with CAKI-1 renal and in the test with A498 renal was > 100 µM in each case.
`COc1c(CNC(=O)CCl)cc2[nH]c(C)cc2c1CNC(=O)CCl`: the GI50 with HCT-15 colon was 14.9 µM; with SF-295 CNS it was 12.8 µM; with SNB-75 CNS it was 6.43 µM; in the test on HOP-92 NSCLC, 4.08 µM; in the test with SK-MEL-5 melanoma, 8.02 µM; in the test with MCF7 breast, 2.81 µM. The GI50 in the test on T-47D breast is 3.55 µM; in the test with 786-0 renal it was 3.8 µM; in the test with CAKI-1 renal it was 6.73 µM; in the test on A498 renal it was 4.29 µM. Further, the TGI with HCT-15 colon was > 100 µM; in the test with SF-295 CNS, 71.9 µM; in the test on SNB-75 CNS, 33 µM; with HOP-92 NSCLC, 20.2 µM; in the test on SK-MEL-5 melanoma it was 25 µM; in the test on MCF7 breast, 20.9 µM. In addition, the TGI was found to be 23.1 µM with T-47D breast, 15.4 µM in the test on 786-0 renal, 37 µM in the test with CAKI-1 renal and 19.1 µM in the test with A498 renal.
As to `COc1cc2c3c(n(C)c(=O)c2cc1OC)-c1cc2c(cc1/C3=C\CCCBr)OCO2`, the GI50 with HCT-15 colon is 34.8 µM; in the test on SF-295 CNS it was 9.16 µM; in the test with SNB-75 CNS, 0.398 µM; with HOP-92 NSCLC, 92.4 µM; in the test on SK-MEL-5 melanoma it was > 69.5 µM; with MCF7 breast, 16.2 µM. Further, the GI50 with T-47D breast was > 91.3 µM; with 786-0 renal, 8.5 µM; in the test with CAKI-1 renal, 48.1 µM; with A498 renal, 26.3 µM. Moreover, the TGI was > 86.8 µM in the test with HCT-15 colon; 30.8 µM in the test with SF-295 CNS; 12.8 µM with SNB-75 CNS; > 100 µM with HOP-92 NSCLC; > 100 µM in the test with SK-MEL-5 melanoma; > 64.8 µM in the test with MCF7 breast. Besides, the TGI in the test on T-47D breast was > 100 µM; in the test with 786-0 renal, > 40.2 µM; in the test on CAKI-1 renal it was > 100 µM; with A498 renal, 68.9 µM.
On to `COc1cc([C@@H]2c3cc4c(cc3[C@H](O)[C@H]3COC(=O)[C@H]23)OCO4)cc(OC)c1OC`, for which the GI50 with HCT-15 colon is < 0.005 µM; in the test on SF-295 CNS, < 0.01 µM; in the test on SNB-75 CNS, < 0.005 µM; in the test on HOP-92 NSCLC, < 0.01 µM; with MCF7 breast it was < 0.01 µM; with T-47D breast, > 84.5 µM. Moreover, the figures for the GI50 with 786-0 renal, in the test with CAKI-1 renal and in the test on A498 renal were < 0.005 µM, < 0.005 µM and < 0.01 µM, respectively. Moreover, the TGI with HCT-15 colon is > 100 µM and 50 µM; with SK-MEL-5 melanoma, 0.0477 µM; in the test with MCF7 breast, > 100 µM and 10.3 µM; in the test on T-47D breast it was > 100 µM and 34.1 µM; in the test with 786-0 renal it was 1.08 µM and 0.5 µM and < 0.215 µM.
In the case of `CCCCN(CCCC)CCCN=c1nc2c(c(N)n1-c1ccccc1)c(=S)n(-c1ccccc1)c(=S)n2-c1ccccc1`, the GI50 with HCT-15 colon is 0.309 µM; in the test on SF-295 CNS it was 1.4 µM; in the test with SNB-75 CNS, 0.719 µM; in the test with HOP-92 NSCLC, 0.229 µM; in the test with SK-MEL-5 melanoma it was 1.02 µM; in the test with MCF7 breast it was 0.361 µM. In addition, the GI50 was 1.73 µM with T-47D breast, 0.501 µM in the test with 786-0 renal, 0.384 µM in the test on CAKI-1 renal and 1.06 µM in the test on A498 renal. Besides, the TGI stood at 1.14 µM in the test with HCT-15 colon; 3 µM with SF-295 CNS; 2.11 µM in the test with SNB-75 CNS; 0.83 µM in the test with HOP-92 NSCLC; 2.3 µM in the test with SK-MEL-5 melanoma; 1.51 µM in the test on MCF7 breast. Moreover, the TGI in the test on T-47D breast amounted to 3.79 µM; with 786-0 renal, 1.08 µM; in the test on CAKI-1 renal it was 1.49 µM; in the test on A498 renal, 2.39 µM.
In the case of `CC1=C(/C=C/C(C)=C/C=C/C(C)=C/C(=O)Nc2ccc(O)cc2)C(C)(C)CCC1`, the TGI with HCT-15 colon was 17.9 µM and 25.2 µM; in the test on SF-295 CNS, 3.74 µM and 12.3 µM; with SNB-75 CNS it was 5.85 µM and 23.2 µM; with HOP-92 NSCLC, 4.1 µM and 6.11 µM; in the test with SK-MEL-5 melanoma, 7.21 µM and 12 µM; in the test with MCF7 breast, 9.59 µM and 12.9 µM. For the same compound, the TGI in the test on T-47D breast is 9.24 µM and 15.5 µM; in the test on 786-0 renal it was 4.36 µM and 10.9 µM; in the test with CAKI-1 renal it was 15.8 µM and 13.6 µM; with A498 renal, 9.07 µM and 19.1 µM. Further, the GI50 is 0.932 µM in the test with SF-295 CNS; 1.81 µM in the test on SNB-75 CNS; 1.77 µM in the test with HOP-92 NSCLC; 2.1 µM in the test on SK-MEL-5 melanoma; 1.4 µM with MCF7 breast; 1.31 µM in the test with T-47D breast. For the same compound, the values for the GI50 in the test with 786-0 renal, in the test with CAKI-1 renal and with A498 renal were 1.72 µM, 3.87 µM and 1.96 µM, respectively.
For `O=C1/C(=C/c2ccccc2)CCC/C1=C\c1ccccc1`, the GI50 with HCT-15 colon is 5.91 µM and 6.43 µM; with SF-295 CNS it was 7.49 µM; in the test with SNB-75 CNS it was 6.22 µM; in the test with HOP-92 NSCLC it was 6.48 µM; in the test with SK-MEL-5 melanoma, 6.75 µM and 6.37 µM; in the test on MCF7 breast, 3.46 µM. The GI50 was 15.1 µM with T-47D breast; 6.62 µM in the test on 786-0 renal; 7.03 µM and 17 µM with CAKI-1 renal. The TGI with HCT-15 colon was 11.9 µM and 31.7 µM and 43.8 µM; with SF-295 CNS it was 13.6 µM and 26.5 µM; in the test on SNB-75 CNS, 13.2 µM and 51.2 µM and 52.1 µM; in the test with HOP-92 NSCLC it was 13 µM and 35.2 µM and 37.3 µM; in the test on SK-MEL-5 melanoma, 12 µM and 26.4 µM and 19.6 µM; with MCF7 breast, 12.4 µM and 21 µM. Also, the TGI is 11.6 µM and 38.6 µM in the test on T-47D breast; 11.9 µM and 25.9 µM and 27.1 µM in the test on 786-0 renal; 13 µM and 46.4 µM and 44.7 µM with CAKI-1 renal; 29.8 µM and 29.2 µM with A498 renal.

Source of the values: PubChem BioAssay (NCI).
